Results on 20 compounds are retold here after US20210380548A1, “Fused [1,2,4]Thiadiazine Derivatives Which Act as KAT Inhibitors of the MYST Family” (CTxT Pty Limited, priority 2017, published 2021).

In general, IC50 refers to the point on the concentration scale where inhibition reaches its midpoint. The low end stands for greater potency in that assay, the high end for weaker potency in that assay.

In assay [1] the target is T1, MOF-KAT8 (Homo sapiens, UniProt Q9H7Z6).
T1 sequence (Q9H7Z6 177-447): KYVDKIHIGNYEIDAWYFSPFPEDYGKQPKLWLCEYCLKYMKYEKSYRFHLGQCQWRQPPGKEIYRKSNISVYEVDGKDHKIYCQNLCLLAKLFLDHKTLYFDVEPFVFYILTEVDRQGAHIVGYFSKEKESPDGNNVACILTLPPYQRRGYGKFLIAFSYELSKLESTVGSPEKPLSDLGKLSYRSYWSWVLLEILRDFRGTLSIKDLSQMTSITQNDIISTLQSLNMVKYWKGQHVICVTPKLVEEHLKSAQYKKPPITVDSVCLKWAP
In words: Acetyltransferase biochemical assay (AlphaScreen), KAT8. To be noted: Table 4 (MOF-KAT8); 0.4 μM Acetyl coenzyme A, histone H4, 20 nM enzyme. (In general: Alpha assays give light when donor and acceptor beads are brought close together.)

Assay [2] addresses T2, MOZ-KAT6A (Homo sapiens, UniProt Q92794, A567V).
T2 construct: encoding amino acid residues 507 to 778 (Uniprot Q92794-1) of human KAT6A; made in house; host or cells: E. coli BL21 DE3
In words: Revised Acetyltransferase Biochemical Assay, KAT6A. To be noted: Table 8 (MOZ-KAT6A), 1 μM Acetyl coenzyme A.

Assay [3] addresses T3, TIP60-KAT5 (Homo sapiens, UniProt Q92993).
T3 construct: encoding amino acid residues 2 to 461 (Uniprot Q92993-2) of human KAT5 isoform; made in house; host or cells: E. coli BL21 DE3
In words: Acetyltransferase biochemical assay (AlphaScreen), KAT5. To be noted: Table 1 (TIP60-KAT5); 0.4 μM Acetyl coenzyme A, histone H4, 10 nM enzyme.

Assay [4] addresses T4, HBO-KAT7 (Homo sapiens, UniProt O95251).
T4 construct: encoding amino acid residues 325 to 611 (Uniprot 095251-1) of human KAT7; made in house; host or cells: E. coli BL21 DE3 RIL
In words: Acetyltransferase biochemical assay (AlphaScreen), KAT7. The following applies: Table 3 (HBO-KAT7); 0.4 μM Acetyl coenzyme A, histone H3.1, 40 nM enzyme.

Assay [5] deals with T2, MOZ-KAT6A. Briefly: Acetyltransferase biochemical assay (AlphaScreen), KAT6A. The following applies: Table 2 (MOZ-KAT6A); 10 μM Acetyl coenzyme A, histone H3.1, 5 nM enzyme.
Assay [6] has as its target T3, TIP60-KAT5. In words: Revised Acetyltransferase Biochemical Assay, KAT5. To be noted: 10 nM KAT5, 1 μM AcCoA, 100 nM histone H4, 90 min.
Assay [7] deals with T1, MOF-KAT8. Briefly: Revised Acetyltransferase Biochemical Assay, KAT8.
Assay [8] has as its target T4, HBO-KAT7. In words: Revised Acetyltransferase Biochemical Assay, KAT7. To be noted: Table 9 (HBO-KAT7), 1 μM Acetyl coenzyme A.
The subject of assay [9] is histone H2A.Z Lysine 7 acetylation (TIP60 mediated) in U2OS cells. Briefly: H2A.Z Lysine 7 Acetylation Biomarker Assay (384-well, U2OS). It counts as cell-based. The following applies: Homo sapiens, serum free medium, 24 hours incubation. As to the method: Compounds may be tested for their ability to inhibit the histone H2A.Z Lysine 7 acetylation marker (which is TIP60 mediated) in the following assay:
The cell line U2OS was seeded at a density of 3,000 cells per well in 384-well optical quality tissue culture plates in RPMI medium supplemented with 10% foetal bovine serum and 10 mM Hepes. The cells were allowed to adhere for 24 hours under standard culture conditions (37 degree Celsius, 5% CO2). At the end of this period the cells were washed with serum free medium. […] After incubation for 24 hours, the cells were fixed with 4% formaldehyde in PBS for 15 minutes at room temperature, washed with phosphate buffer saline and blocked with blocking buffer containing 0.2% TritonX100 and 2% BSA. Anti-H2A.ZK7ac specific antibody (Abcam) in blocking buffer was added and incubated overnight at 4 degree Celsius. After washing, a secondary antibody labelled with AlexaFluor 488 dye (ThermoFisher) and Hoechst 33342 (1 μg/mL, Life Technologies) were added for 2 hours incubation at room temperature. Plates were washed and read on a PerkinElmer Opera HCS high content imaging platform. Using a Columbus image analysis pipeline, individual nuclei were located by Hoechst 33342 stain and the acetylation level was calculated from the AlexaFluor 488-related intensity in the same area. The resulting mean intensity per cell was converted to percent inhibition relative to controls on the same plate and the data fitted against a four-parameter logistic model to determine the 50% inhibitory concentration (IC50).

T4 sequence (O95251 with tags, fused parts or gaps): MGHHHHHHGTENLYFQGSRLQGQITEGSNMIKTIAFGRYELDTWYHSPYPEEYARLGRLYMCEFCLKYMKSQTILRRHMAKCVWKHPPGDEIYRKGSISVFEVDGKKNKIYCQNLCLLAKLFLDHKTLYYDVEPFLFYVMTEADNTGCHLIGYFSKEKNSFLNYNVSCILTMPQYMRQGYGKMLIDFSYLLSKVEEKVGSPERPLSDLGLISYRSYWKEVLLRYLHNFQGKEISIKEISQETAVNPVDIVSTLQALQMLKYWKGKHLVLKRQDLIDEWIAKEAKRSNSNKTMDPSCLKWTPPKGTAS
T2 sequence (Q92794 507-778 A567V limits assumed): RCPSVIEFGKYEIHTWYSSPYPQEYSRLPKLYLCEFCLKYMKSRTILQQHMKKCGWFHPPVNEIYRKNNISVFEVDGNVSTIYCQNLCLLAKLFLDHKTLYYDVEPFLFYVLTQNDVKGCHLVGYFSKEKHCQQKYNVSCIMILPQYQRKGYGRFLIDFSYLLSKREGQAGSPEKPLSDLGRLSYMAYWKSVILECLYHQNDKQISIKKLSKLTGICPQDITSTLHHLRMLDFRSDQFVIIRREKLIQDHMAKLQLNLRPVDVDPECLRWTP
T3 sequence (Q92993 2-461 isoform Q92993-2): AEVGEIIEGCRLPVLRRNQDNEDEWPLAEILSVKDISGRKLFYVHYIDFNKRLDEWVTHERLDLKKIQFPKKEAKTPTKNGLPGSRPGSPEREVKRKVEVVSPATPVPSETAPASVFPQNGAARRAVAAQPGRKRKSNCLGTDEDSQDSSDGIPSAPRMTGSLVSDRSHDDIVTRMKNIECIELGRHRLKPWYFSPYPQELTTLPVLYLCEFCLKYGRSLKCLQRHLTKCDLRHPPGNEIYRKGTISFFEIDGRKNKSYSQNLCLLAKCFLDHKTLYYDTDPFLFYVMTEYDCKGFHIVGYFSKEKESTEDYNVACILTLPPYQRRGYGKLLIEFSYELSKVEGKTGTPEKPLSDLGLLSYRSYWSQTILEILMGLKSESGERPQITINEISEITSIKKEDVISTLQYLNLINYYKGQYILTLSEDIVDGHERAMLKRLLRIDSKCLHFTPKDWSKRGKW

Consider `O=C(NCC(c1ccccc1)c1ncco1)C1=Nc2ccc(OC(F)(F)F)cc2S(=O)(=O)N1` (centres unmarked) [Example 5, N-(2-(Oxazol-2-yl)-2-phenylethyl)-7-(trifluoromethoxy)-2H-benzo[e][1,2,4]thiadiazine-3-carboxamide 1,1-dioxide], for which the IC50 against MOF-KAT8 [1] was found to be 27700 nM; on MOZ-KAT6A [2] it was 69 nM; against TIP60-KAT5 [3] it was 1170 nM; against HBO-KAT7 [4], 2040 nM; at MOZ-KAT6A [5], 667 nM; against TIP60-KAT5 [6] it was 493 nM.

Regarding `O=C(NCCc1ccccc1-c1ncco1)C1=Nc2ccccc2S(=O)(=O)N1` [Example 7, N-(2-(Oxazol-2-yl)phenethyl)-2H-benzo[e][1,2,4]thiadiazine-3-carboxamide1,1-dioxide], the IC50 is above 125000 nM on MOF-KAT8 [1]; 81600 nM against MOF-KAT8 [7]; 316 nM at MOZ-KAT6A [2]; 11700 nM against TIP60-KAT5 [3]; 11900 nM against HBO-KAT7 [4]; 2800 nM at MOZ-KAT6A [5]. Also, the values for the IC50 at HBO-KAT7 [8] and on TIP60-KAT5 [6] were 1180 nM and 5920 nM, respectively.

Take `O=C(NCC(c1ccccc1)c1ncco1)C1=Nc2ccc(C(=O)O)cc2S(=O)(=O)N1` (centres unmarked) [Example 24, 3-((2-(Oxazol-2-yl)-2-phenylethyl)carbamoyl)-2H-benzo[e][1,2,4]thiadiazine-7-carboxylic Acid 1,1-dioxide]: the IC50 on MOF-KAT8 [1] came to 69600 nM; against MOZ-KAT6A [2], 110 nM; against TIP60-KAT5 [3] it was 7160 nM; against HBO-KAT7 [4], 141 nM; against MOZ-KAT6A [5], 127 nM; against HBO-KAT7 [8], 583 nM. For the same compound, the IC50 against TIP60-KAT5 [6] is 5400 nM.

In the case of `CN(C)C(=O)c1ccc2c(c1)S(=O)(=O)NC(C(=O)NCC(c1ccccc1)c1ncco1)=N2` (centres unmarked) [Example 33, N^7,N^7-Dimethyl-N^3-(2-(oxazol-2-yl)-2-phenylethyl)-2H-benzo[e][1,2,4]thiadiazine-3,7-dicarboxamide 1,1-dioxide], the IC50 is 89600 nM at MOF-KAT8 [1]; above 125000 nM on MOF-KAT8 [7]; 47 nM at MOZ-KAT6A [2]; 6950 nM on TIP60-KAT5 [3]; 6780 nM at HBO-KAT7 [4]; 126 nM at MOZ-KAT6A [5]. The IC50 amounted to 551 nM on HBO-KAT7 [8] and 3780 nM against TIP60-KAT5 [6].

As to `O=C(NCC(O)c1ccccc1)C1=Nc2ccc(Br)cc2S(=O)(=O)N1` (centres unmarked) [Example 82], the IC50 on MOF-KAT8 [1] is above 125000 nM; against TIP60-KAT5 [3] it was 7820 nM; at MOZ-KAT6A [5], 9190 nM.

On to `COc1ccccc1CCNC(=O)C1=Nc2ccc(I)cc2S(=O)(=O)N1` [Example 86], for which the IC50 against MOF-KAT8 [1] was 39400 nM; against MOF-KAT8 [7], 42400 nM; on MOZ-KAT6A [2], 96 nM; at TIP60-KAT5 [3] it was 1170 nM; against HBO-KAT7 [4] it was 1330 nM; against MOZ-KAT6A [5], 2700 nM. Besides, the results for the IC50 against HBO-KAT7 [8] and at TIP60-KAT5 [6] were 787 nM and 521 nM, respectively.

For the compound `O=C(NCC(O)c1ccccc1)C1=Nc2ccc(I)cc2S(=O)(=O)N1` (centres unmarked) [Example 87], the IC50 against MOF-KAT8 [1] was 114000 nM; against TIP60-KAT5 [3], 4470 nM; against HBO-KAT7 [4], 12000 nM; against MOZ-KAT6A [5], 8930 nM.

Regarding `COC(CNC(=O)C1=Nc2ccc(I)cc2S(=O)(=O)N1)c1ccccc1` (centres unmarked) [Example 88], the 50% inhibitory concentration (IC50) stood at 47000 nM at MOF-KAT8 [1], 1190 nM against TIP60-KAT5 [3] and 659 nM against HBO-KAT7 [4].

Turning to `O=C(NCCc1ccccc1OC(F)(F)F)C1=Nc2ccc(Br)cc2S(=O)(=O)N1` [Example 114], the 50% inhibitory concentration (IC50) is above 125000 nM on MOF-KAT8 [1], 954 nM against TIP60-KAT5 [3], 529 nM on HBO-KAT7 [4] and 861 nM against MOZ-KAT6A [5].

For `O=C(NCCc1ccccc1O)C1=Nc2ccc(Br)cc2S(=O)(=O)N1` [Example 116], the IC50 is 56700 nM at MOF-KAT8 [1], 4440 nM at TIP60-KAT5 [3] and 2260 nM against MOZ-KAT6A [5].

Turning to `O=C(NCC(c1ccc(F)cc1)c1ncco1)C1=Nc2ccc(Cl)cc2S(=O)(=O)N1` (centres unmarked) [Example 165], the IC50 on MOF-KAT8 [1] was 43100 nM; against MOF-KAT8 [7] it was above 125000 nM; at MOZ-KAT6A [2], 31 nM; on HBO-KAT7 [8] it was 1770 nM; at TIP60-KAT5 [6] it was 6020 nM.

As to `Cc1ccc(C(CNC(=O)C2=Nc3ccc(Cl)cc3S(=O)(=O)N2)c2ncco2)cc1` (centres unmarked) [Example 170], the IC50 against MOF-KAT8 [1] was 3750 nM; at MOF-KAT8 [7] it was above 125000 nM; against MOZ-KAT6A [2] it was 143 nM; against HBO-KAT7 [8], 1630 nM; against TIP60-KAT5 [6], 13300 nM.

Turning to `O=C(NCC(c1ccccc1)c1ccccn1)C1=Nc2ccc(Br)cc2S(=O)(=O)N1` (centres unmarked) [Example 173], the IC50 against MOF-KAT8 [1] amounted to 39100 nM; against MOF-KAT8 [7], 30400 nM; at MOZ-KAT6A [2], 11 nM; against HBO-KAT7 [4], 51 nM; at HBO-KAT7 [8], 161 nM; at TIP60-KAT5 [6] it was 651 nM.

As to `O=C(NCC(c1ncco1)c1ccccc1I)C1=Nc2ccccc2S(=O)(=O)N1` (centres unmarked) [Example 174, N-(2-(2-iodophenyl)-2-(oxazol-2-yl)ethyl)-2H-benzo[e][1,2,4]thiadiazine-3-carboxamide 1,1-dioxide], the IC50 against MOF-KAT8 [1] was above 125000 nM; on MOZ-KAT6A [2] it was 573 nM; against HBO-KAT7 [4], 7490 nM; at HBO-KAT7 [8], 4150 nM; at TIP60-KAT5 [6], 15300 nM.

For the compound `CNC(=O)CCCOC(=O)C(CNC(=O)C1=Nc2ccc(I)cc2S(=O)(=O)N1)c1ccccc1` (centres unmarked) [Example 180], the IC50 against MOF-KAT8 [1] turned out to be 77000 nM; at MOZ-KAT6A [2], 229 nM; in assay [9], 37500 nM; on HBO-KAT7 [8] it was 557 nM; against TIP60-KAT5 [6], 249 nM.

On to `CNC(=O)CCOC(=O)C(CNC(=O)C1=Nc2ccc(I)cc2S(=O)(=O)N1)c1ccccc1` (centres unmarked) [Example 183], for which the IC50 against MOF-KAT8 [1] worked out at 36300 nM; against MOF-KAT8 [7], 30500 nM; on MOZ-KAT6A [2], 44 nM; in [9], 33200 nM; against HBO-KAT7 [8], 718 nM; on TIP60-KAT5 [6], 68 nM.

In the case of `CS(=O)(=O)c1ccc2c(c1)S(=O)(=O)NC(C(=O)NCC(c1ccccc1)c1ncco1)=N2` (centres unmarked) [Example 191], the IC50 against MOZ-KAT6A [2] is 43 nM; in [9], above 40000 nM; on HBO-KAT7 [8] it was 243 nM; on TIP60-KAT5 [6], 919 nM.

Turning to `N#Cc1ccccc1C(CNC(=O)C1=Nc2ccccc2S(=O)(=O)N1)c1ncco1` (centres unmarked) [Example 218, N-(2-(2-Cyanophenyl)-2-(oxazol-2-yl)ethyl)-2H-benzo[e][1,2,4]thiadiazine-3-carboxamide 1,1-dioxide], the IC50 was above 125000 nM against MOF-KAT8 [1]; above 125000 nM on MOF-KAT8 [7]; 153 nM on MOZ-KAT6A [2]; 9410 nM at HBO-KAT7 [8]; 16800 nM at TIP60-KAT5 [6].

For `COC(=O)c1ccccc1C(CNC(=O)C1=Nc2ccccc2S(=O)(=O)N1)c1ncco1` (centres unmarked) [Example 219, Methyl 2-(2-(1,1-dioxido-2H-benzo[e][1,2,4]thiadiazine-3-carboxamido)-1-(oxazol-2-yl)ethyl)benzoate], the IC50 is above 125000 nM on MOF-KAT8 [1]; above 125000 nM against MOF-KAT8 [7]; 3590 nM against MOZ-KAT6A [2]; 105000 nM against HBO-KAT7 [8]; above 125000 nM against TIP60-KAT5 [6].

With `O=C(NCCc1ccccc1-n1ccnn1)C1=Nc2ccc(I)cc2S(=O)(=O)N1` [Example 241, N-(2-(1H-1,2,3-triazol-1-yl)phenethyl)-7-iodo-2H-benzo[e][1,2,4]thiadiazine-3-carboxamide 1,1-dioxide], the IC50 against MOZ-KAT6A [2] was 82 nM; in assay [9] it was above 40000 nM; at HBO-KAT7 [8], 948 nM; against TIP60-KAT5 [6] it was 1010 nM.
